Source: ChEMBL document CHEMBL4304832, “Novel Pyrazole-Containing Compounds Active against Mycobacterium tuberculosis” (ACS Med Chem Lett, 2019)
pIC50: −log10 of the molar value. ≈ marks a conversion by molar mass, not a printed value.

What was measured:
[1] = system: Mycobacterium tuberculosis; assay: Antitubercular activity against Mycobacterium tuberculosis H37Rv incubated for 6 days by resazurin dye based fluorescence assay; format: functional; settings: 144 h
[2] = Protection Index, ratio of CC50 for human HepG2 cells to MIC for Mycobacterium tuberculosis H37Rv; format: toxicity; settings: read-out: PI
[3] = Chromatographic lipophilicity, log D of compound in PBS ay pH 7.4 by UV-HPLC analysis; format: physicochemical; settings: for chromatographic logD: PBS
Albumin = Albumin (Homo sapiens, UniProt P02768); assay: Binding affinity to HSA by HPLC analysis; format: ADME; settings: isolated protein
[4] = Kinetic solubility of the compound in pH 7.4 phosphate buffered saline; format: physicochemical; settings: read-out: Kinetic_solubility
[5] = Solubility of the compound in FASSIF at 1 mg incubated for 4 hrs by UPLC-MS analysis; format: physicochemical
[6] = Cytotoxicity against human HepG2 cells incubated for 48 hrs by CellTiter Glo assay; format: cell-based
[7] = target: Voltage-gated inwardly rectifying potassium channel KCNH2 (Homo sapiens, UniProt Q12809); assay: Inhibition of human ERG
[8] = Permeability of the compound in pH 7.05 phosphate buffer incubated for 3 hrs by artificial membrane permeability assay based LCMS analysis; format: ADME; settings: PAMPA, read-out: permeability
[9] = system: Mycobacterium tuberculosis; assay: Antitubercular activity against Mycobacterium tuberculosis H37Rv infected in C57BL/6 mouse assessed as reduction in bacterial load in lungs at 200 mg/kg administered once daily starting from 5 days post infection for 4 consecutive days and measured on day 9; format: functional
[10] = Intrinsic clearance in human liver microsomes at 0.5 uM measured up to 30 mins in presence of NADPH by UPLC/MS/MS analysis; format: ADME, Microsome; settings: 0.5 h

Voltage-gated inwardly rectifying potassium channel KCNH2, sequence (Q12809 whole entry): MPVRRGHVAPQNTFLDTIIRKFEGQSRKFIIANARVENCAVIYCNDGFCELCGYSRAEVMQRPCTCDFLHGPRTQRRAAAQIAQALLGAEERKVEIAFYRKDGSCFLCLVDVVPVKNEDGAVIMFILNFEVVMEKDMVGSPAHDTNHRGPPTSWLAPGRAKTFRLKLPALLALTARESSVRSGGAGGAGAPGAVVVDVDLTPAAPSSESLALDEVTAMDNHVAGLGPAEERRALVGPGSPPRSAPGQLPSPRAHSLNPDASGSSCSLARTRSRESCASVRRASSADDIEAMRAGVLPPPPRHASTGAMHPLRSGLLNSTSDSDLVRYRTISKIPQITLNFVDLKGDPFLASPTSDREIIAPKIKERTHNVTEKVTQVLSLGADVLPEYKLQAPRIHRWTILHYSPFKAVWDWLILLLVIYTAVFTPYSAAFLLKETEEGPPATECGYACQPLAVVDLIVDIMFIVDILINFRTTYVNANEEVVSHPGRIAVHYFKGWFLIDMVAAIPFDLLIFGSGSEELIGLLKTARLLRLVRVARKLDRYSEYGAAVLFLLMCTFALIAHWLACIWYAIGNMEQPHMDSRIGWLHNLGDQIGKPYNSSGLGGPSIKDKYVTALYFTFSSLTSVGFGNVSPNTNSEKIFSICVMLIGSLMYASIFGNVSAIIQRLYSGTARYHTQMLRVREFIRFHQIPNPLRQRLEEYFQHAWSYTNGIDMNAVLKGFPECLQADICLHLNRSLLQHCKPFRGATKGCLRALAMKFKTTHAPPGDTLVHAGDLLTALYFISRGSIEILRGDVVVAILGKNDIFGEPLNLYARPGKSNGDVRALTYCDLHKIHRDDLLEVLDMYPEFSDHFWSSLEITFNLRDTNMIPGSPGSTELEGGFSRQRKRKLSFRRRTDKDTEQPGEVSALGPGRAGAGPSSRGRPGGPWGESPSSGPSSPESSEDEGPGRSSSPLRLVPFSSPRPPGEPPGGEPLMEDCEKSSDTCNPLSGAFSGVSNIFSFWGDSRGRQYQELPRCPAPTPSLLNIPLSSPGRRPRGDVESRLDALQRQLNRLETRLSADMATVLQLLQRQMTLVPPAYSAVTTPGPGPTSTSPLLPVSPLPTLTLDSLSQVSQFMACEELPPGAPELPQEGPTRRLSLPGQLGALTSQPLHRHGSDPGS
Albumin, sequence (P02768 whole entry): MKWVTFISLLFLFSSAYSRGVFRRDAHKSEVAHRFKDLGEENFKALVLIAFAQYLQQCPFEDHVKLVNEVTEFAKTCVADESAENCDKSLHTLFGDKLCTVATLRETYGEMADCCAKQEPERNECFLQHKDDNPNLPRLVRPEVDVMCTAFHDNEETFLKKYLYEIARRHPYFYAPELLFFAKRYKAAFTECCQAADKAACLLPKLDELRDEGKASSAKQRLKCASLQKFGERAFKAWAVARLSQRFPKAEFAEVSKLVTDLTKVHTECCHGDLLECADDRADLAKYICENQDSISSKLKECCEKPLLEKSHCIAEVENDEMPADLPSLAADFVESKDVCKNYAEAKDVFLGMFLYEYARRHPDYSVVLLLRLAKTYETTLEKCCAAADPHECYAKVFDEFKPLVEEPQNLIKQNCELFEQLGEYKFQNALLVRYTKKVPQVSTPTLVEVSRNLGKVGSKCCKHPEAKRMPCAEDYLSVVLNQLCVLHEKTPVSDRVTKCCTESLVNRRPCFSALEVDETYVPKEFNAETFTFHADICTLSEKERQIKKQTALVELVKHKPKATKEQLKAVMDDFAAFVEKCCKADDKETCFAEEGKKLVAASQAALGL

SMILES	MIC [1] [µM]	selectivity ratio [2]	CC50 at 48 h [6] [µM]	also measured
Cc1c(CN2CCOCC2)cc(-c2ccc(C(C)C)cc2)n1-c1ccc(F)cc1	0.12 (≈ 0.0471 µg/mL)	333		chromatographic logD [3]: 8.1; Activity (Albumin): 98.37%; solubility kinetic [4]: < 1 µM; solubility at 4 h [5]: 5 µg/mL (≈ 12.7 µM)
CC(C)n1nc(CN2CCOCC2)cc1-c1ccc(C(F)(F)F)cc1	23 (≈ 8.13 µg/mL)	> 4	> 100	
COC1CCN(Cc2cc(-c3ccc(C(F)(F)F)cc3)n(C(C)C)n2)CC1	2.5 (≈ 0.954 µg/mL)	32	79.4	
COC1CCCN(Cc2cc(-c3ccc(C(C)C)cc3)n(-c3ccc(F)cc3)n2)C1 (stereo unspecified)	2.4 (≈ 0.978 µg/mL)	13	32	
CC(C)c1ccc(-c2cc(CN3CCOCC3)nn2-c2ccc(F)cc2)cc1	5 (≈ 1.9 µg/mL)	10	50.1	
CC(C)c1ccc(-c2cc(CN3CC[Si](C)(C)CC3)nn2C2CCCCC2)cc1	0.04 (≈ 0.0164 µg/mL)	315	12.6	Activity (Albumin): 97.35%; solubility kinetic [4]: 46 µM (≈ 18.8 µg/mL); pIC50 [7]: 5.10
CC(C)c1ccc(-c2cc(CN3CCC(O)CC3)nn2-c2ccc(F)cc2)cc1	10 (≈ 3.94 µg/mL)	2	20	
COC1CCN(Cc2cc(-c3ccc(C(F)(F)F)cc3)n(C3CCCCC3)n2)CC1	1.2 (≈ 0.506 µg/mL)	26	31.6	
Cc1cc(CN2CCOCC2)nn1C1CCCCC1	2.5 (≈ 0.658 µg/mL)	20	50	
CC(C)(C)OC(=O)N1CCN(Cc2cc(-c3ccc(C(F)(F)F)cc3)n(C3CCCCC3)n2)CC1	2 (≈ 0.985 µg/mL)	> 50	> 100	
CC(C)c1ccc(-c2cc(CN3CCN(C(=O)OC(C)(C)C)CC3)nn2C2CCCCC2)cc1	1 (≈ 0.467 µg/mL)	40	40	
Fc1ccc(-n2nc(CN3CCOCC3)cc2-c2ccc(C(F)(F)F)cc2)cc1	20 (≈ 8.11 µg/mL)	5	100	
CC(C)c1ccc(-c2cc(CN3CCC(O)CC3)nn2C2CCCCC2)cc1	42 (≈ 16 µg/mL)	1.5	63	
COC1CCN(Cc2cc(-c3ccc(C(C)C)cc3)n(C3CCCCC3)n2)CC1	0.6 (≈ 0.237 µg/mL)	21	12.6	
CC(C)c1ccc(-c2cc(CN3CCCC(O)C3)nn2-c2ccc(F)cc2)cc1 (stereo unspecified)	20 (≈ 7.87 µg/mL)	1.25	25.1	
CC(C)c1ccc(-c2cc(CN3CCN(C)CC3)nn2C2CCCCC2)cc1	21 (≈ 7.99 µg/mL)	0.5	10	
CC(C)(C)OC(=O)N1CCN(Cc2cc(-c3ccc(C(F)(F)F)cc3)n(-c3ccc(F)cc3)n2)CC1	4 (≈ 2.02 µg/mL)	> 25	> 100	
CC(C)c1ccc(-c2cc(CN3CCOCC3)nn2C2CCCOC2)cc1 (stereo unspecified)	2 (≈ 0.739 µg/mL)	> 50	> 100	
Cc1c(CN2CCOCC2)nc(-c2ccc(C(C)C)cc2)n1-c1ccc(F)cc1	40 (≈ 15.7 µg/mL)	1.25	50.1	
FC(F)(F)c1ccc(-c2cc(CN3CCOCC3)nn2C2CCCCC2)cc1	2.5 (≈ 0.984 µg/mL)	20	50	
CC(C)c1ccc(-c2cc(CN3CCCC(O)C3)nn2C(C)C)cc1 (stereo unspecified)	1 (≈ 0.341 µg/mL)	50	50	
CC(C)c1ccc(-c2cc(CN3CCSCC3)nn2C2CCCCC2)cc1	1.3 (≈ 0.499 µg/mL)	31	40	
FC(F)(F)c1ccc(-c2cc(CN3CCSCC3)nn2C2CCCCC2)cc1	1.2 (≈ 0.491 µg/mL)	53	63.1	
COC1CCN(Cc2cc(-c3ccc(C(F)(F)F)cc3)n(-c3ccc(F)cc3)n2)CC1	0.3 (≈ 0.13 µg/mL)	105	31.6	chromatographic logD [3]: 6.67; Papp at 3 h [8]: 17 ×10⁻⁶ cm/s; Activity (Albumin): 96.47%; solubility kinetic [4]: 258 µM (≈ 112 µg/mL); pIC50 [7]: 5.49
COC1CCCN(Cc2cc(-c3ccc(C(C)C)cc3)n(C3CCCCC3)n2)C1 (stereo unspecified)	2.5 (≈ 0.989 µg/mL)	8	20	
CC(C)c1ccc(-c2cc(CN3CCOCC3)nn2C2CCC2)cc1	0.4 (≈ 0.136 µg/mL)	125	50	chromatographic logD [3]: 7.37; Papp at 3 h [8]: 61 ×10⁻⁶ cm/s; Activity (Albumin): 96.72%; solubility kinetic [4]: 305 to 306 µM; solubility at 4 h [5]: 139 µg/mL (≈ 409 µM); pIC50 [7]: 4.49; Activity [9]: 0.3 log10CFU; CLH [10]: 2.8 mL/min/g

SMILES	MIC [1] [µM]	selectivity ratio [2]	CC50 at 48 h [6] [µM]	also measured
C[Si]1(C)CCN(Cc2cc(-c3ccc(C(F)(F)F)cc3)n(C3CCCCC3)n2)CC1	0.07 (≈ 0.0305 µg/mL)	180	12.6	chromatographic logD [3]: 8.49; Activity (Albumin): 96.32%; solubility kinetic [4]: 69 µM (≈ 30.1 µg/mL); pIC50 [7]: 5.60
COC1CCN(Cc2cc(-c3ccc(C(C)C)cc3)n(-c3ccc(F)cc3)n2)CC1	0.3 (≈ 0.122 µg/mL)	105	31.6	chromatographic logD [3]: 7.31; Papp at 3 h [8]: 44 ×10⁻⁶ cm/s; Activity (Albumin): 96.42%; solubility kinetic [4]: 152 µM (≈ 61.9 µg/mL); pIC50 [7]: 5.20; Activity [9]: 1.5 log10CFU
CC(C)c1ccc(-c2cc(CN3CCOCC3)nn2C2CCCCC2)cc1	0.4 (≈ 0.147 µg/mL)	158	63.1	chromatographic logD [3]: 8.29; Papp at 3 h [8]: 35 ×10⁻⁶ cm/s; Activity (Albumin): 97.11%; solubility kinetic [4]: 78.5 µM (≈ 28.9 µg/mL); solubility at 4 h [5]: 100 µg/mL (≈ 272 µM); pIC50 [7]: < 4.30; Activity [9]: 0.4 log10CFU; CLH [10]: 3.4 mL/min/g
Cc1c(CN2CCOCC2)nn(-c2ccc(C(C)C)cc2)c1-c1ccc(F)cc1	50 (≈ 19.7 µg/mL)	> 2	> 100	
CC(C)c1ccc(-c2cc(CN3CCOCC3)nn2C(C)C)cc1	1.75 (≈ 0.573 µg/mL)	45	79.4	
COC1CCN(Cc2cc(C)n(C3CCCCC3)n2)CC1	50 (≈ 14.6 µg/mL)	> 2	> 100	
COC1CCN(Cc2cc(-c3ccc(C)nc3)n(C3CCCCC3)n2)CC1	50 (≈ 18.4 µg/mL)	> 2	> 100	
COC1CCN(Cc2nn(-c3ccc(C(C)C)cc3)c(-c3ccc(F)cc3)c2C)CC1	50 (≈ 21.1 µg/mL)			
Cc1ccc(-c2cc(CN3CCOCC3)nn2C2CCCCC2)cn1	50 (≈ 17 µg/mL)	> 2	> 100	
C[Si]1(C)CCN(Cc2cc(-c3ccc(C(F)(F)F)cc3)n(-c3ccc(F)cc3)n2)CC1	0.02 (≈ 0.00895 µg/mL)		16	chromatographic logD [3]: 8.13; Activity (Albumin): 96.65%; solubility kinetic [4]: 53 µM (≈ 23.7 µg/mL)
CC(C)c1ccc(-c2cc(CN3CCNCC3)nn2C2CCCCC2)cc1	20 (≈ 7.33 µg/mL)			
CC(C)c1ccc(-c2cc(CN3CCN(c4ccccn4)CC3)nn2C2CCCCC2)cc1	0.5 (≈ 0.222 µg/mL)	80	40	logD ([3]; buffer): 9.83; Papp at 3 h [8]: < 0.3 ×10⁻⁶ cm/s; Activity (Albumin): 98.41%; solubility kinetic [4]: 15 µM (≈ 6.65 µg/mL); pIC50 [7]: < 4.30
Fc1ccc(-n2nc(CN3CCSCC3)cc2-c2ccc(C(F)(F)F)cc2)cc1	4.7 (≈ 1.98 µg/mL)	17	79.4	
COC1CCN(Cc2cc(-c3ccc(C(C)C)cc3)n(C3CCCOC3)n2)CC1 (stereo unspecified)	2.5 (≈ 0.994 µg/mL)	20	50	
CC(C)c1ccc(-c2cc(CN3CC[Si](C)(C)CC3)nn2-c2ccc(F)cc2)cc1	0.00925 (≈ 0.0039 µg/mL)	1360	12.6	chromatographic logD [3]: 8.82; Activity (Albumin): 97.49%; solubility kinetic [4]: 41 µM (≈ 17.3 µg/mL); pIC50 [7]: 5.70
CC(C)c1ccc(-c2cc(CN3CCN(C(=O)OC(C)(C)C)CC3)nn2-c2ccc(F)cc2)cc1	2 (≈ 0.957 µg/mL)	40	80	
FC(F)(F)c1ccc(-c2cc(CN3CCN(c4ccccn4)CC3)nn2C2CCCCC2)cc1	1 (≈ 0.47 µg/mL)	50	50	
COC1CCN(Cc2nc(-c3ccc(C(C)C)cc3)n(-c3ccc(F)cc3)c2C)CC1	40 (≈ 16.9 µg/mL)			
FC(F)(F)c1ccc(-c2cc(CN3CCCCC3)nn2C2CCCCC2)cc1	2.5 (≈ 0.979 µg/mL)	20	50	
CC(C)c1ccc(-c2cc(CN3CCN(C)CC3)nn2-c2ccc(F)cc2)cc1	20 (≈ 7.85 µg/mL)	0.6	12.6	
Fc1ccc(-n2nc(CN3CCN(c4ccccn4)CC3)cc2-c2ccc(C(F)(F)F)cc2)cc1	2 (≈ 0.963 µg/mL)	16	32	
COC1CCN(Cc2cc(-c3ccc(C(C)C)cc3)n(C(C)C)n2)CC1	50 (≈ 17.8 µg/mL)			
Fc1ccc(-n2nc(CN3CCCCC3)cc2-c2ccc(C(F)(F)F)cc2)cc1	2.5 (≈ 1.01 µg/mL)	16	40	
CC(C)c1ccc(-c2cc(CN3CCN(c4ccccn4)CC3)nn2-c2ccc(F)cc2)cc1	0.5 (≈ 0.228 µg/mL)	128	64	chromatographic logD [3]: 8.76; Papp at 3 h [8]: < 3 ×10⁻⁶ cm/s; Activity (Albumin): 98.45%; solubility kinetic [4]: 6 µM (≈ 2.73 µg/mL); pIC50 [7]: 4.60
NNC(=O)c1ccncc1 [ISONIAZID]	1.8 (≈ 0.247 µg/mL)			
